Columns and labels:
[1] = system: chondrocytes and osteoblasts in the bioreactor; assay: RT-PCR marker expression in cartilage and bone chambers of the bioreactor under hormone stimulation; format: cell-based; details: progesterone progressively added to estradiol (week 3 and 4); higher when hormones directly applied to cartilage
Protocol: Differential expression of markers (as determined by RT-PCR) was evaluated in a control medium that contained no estrogen or progesterone (first bar), and then different concentrations of hormones supplied to the chambers during week 1 (w1: 0.1 nM estradiol), week 2 (w2: 1 nM estradiol), week 3 (w3: 1 nM estradiol and 10 nM progesterone), and week 4 (w4: 0.1 nM estradiol and 50 nM progesterone). Differential expression of markers was determined in a control medium that contained no estrogen or progesterone (first bar), and then different concentrations of hormones supplied to the cartilage chamber during week 1 (w1: 0.1 nM estradiol), week 2 (w2: 1 nM estradiol), week 3 (w3: 1 nM estradiol and 10 nM progesterone), and week 4 (w4: 0.1 nM estradiol and 50 nM progesterone).

[2] = system: synovial cells (SM); assay: IL-1β stimulation of synovial cells in the microJoint (OA model), gene expression; format: cell-based, human; details: 10 ng/mL, 24 h
Protocol: To model OA in the microJoint, the pro-inflammatory cytokine interleukin (IL)-1β (10 ng/mL) was used to stimulate synovial cells for 24 h. Afterwards, IL-1β was withdrawn and inflamed synovium-conditioned medium was perfused through cartilage and FP tissues. […] M0/M1 macrophages can be introduced into the different tissues to investigate their interactions with other cells and implications on OA pathologies.
Different engineered joint tissues, including osteochondral complex (bone and cartilage), synovium, and fat pad were prepared as modules for convenient integration in the bioreactor. After maturation, they were integrated into a bioreactor (FIG. 28). Their interconnection was guided via directional fluidic flow of the culture medium to simulate in vivo physiology (FIG. 29). The bioreactors and accessories were manufactured by 3D printing. Micro-tissues were engineered by encapsulating P5 human MSCs in UV-photocrosslinked 15% methacrylated gelatin (GelMA), and differentiating and maturing them in different types of induction media. The health of individual tissues was assessed by real-time polymerase chain reaction (RT-PCR), histology and enzyme-linked immunosorbent assay (ELISA).

| Compound | cartilage anabolic markers, progesterone added [1] | expression levels of major catabolic genes in SM [2] |
| --- | --- | --- |
| CC(=O)[C@H]1CC[C@H]2[C@@H]3CCC4=CC(=O)CC[C@]4(C)[C@H]3CC[C@]12C [progesterone] | downregulation is still present | – |
| IL-1β: pro-inflammatory cytokine interleukin (IL)-1β used to stimulate synovial cells | – | significantly upregulated |

Reference: US12509653B2, “Organ chip to model mammalian joint” (University of Pittsburgh—Of the Commonwealth System of …, priority 2017, dated 2025)
